US10294202B2, “Pyrrolidinones as herbicides” (FMC Corporation, priority 2013, dated 2019)
Where two headings read alike, the source gives them in different places.

What was measured:
galium = assay: Test A postemergence herbicide test; assay type: in vivo, Galium aparine
In short: (§1)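 Potted in loam soil/sand blend; postemergence application at 1–2 leaf stage (2–10 cm). Greenhouse ~10 d. Visual injury vs untreated, 0–100 scale; 100 = complete control.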

ragweed = assay: Test A pre-/postemergence herbicide test; assay type: in vivo, Ambrosia elatior
In short: (§2)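 Directed soil spray to seeded pots (preemergence) or spray onto one- to two-leaf seedlings 2–10 cm tall (postemergence); loam/sand substrate throughout. Evaluated visually after about 10 days against untreated plants, 0 = no effect, 100 = complete control.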

blackgrass = assay: Test A postemergence herbicide test; assay type: in vivo, Alopecurus myosuroides
In short: as §1

ryegrass, Italian = assay: Test A pre-/postemergence herbicide test; assay type: in vivo, Lolium multiflorum
In short: as §2

velvetleaf = assay: Test A pre-/postemergence herbicide test; assay type: in vivo, Abutilon theophrasti; settings: for Velvetleaf plant response rating: Preemergence, visual rating on 0 to 100 scale (0 no effect, 100 complete control)
In short: as §2

morningglory = assay: Test A pre-/postemergence herbicide test; assay type: in vivo, Ipomoea spp.; settings: for Morningglory plant response rating: Preemergence, visual rating on 0 to 100 scale (0 no effect, 100 complete control)
In short: as §2

[1] = 125 g ai/ha, 0 to 100 scale, 0 is no effect, 100 is complete control
[2] = 125 g ai/ha, visual rating, 0 to 100 scale, 0 no effect, 100 complete control, approximately 10 days, preemergence
[3] = Postemergence, 125 g ai/ha, 0 to 100 scale, 0 is no effect, 100 is complete control
[4] = preemergence, 500 g ai/ha, 0 to 100 scale, 0 is no effect and 100 is complete control
[5] = 125 g ai/ha, visual rating on 0 to 100 scale (0 no effect, 100 complete control), approx. 10 days
[6] = 500 g ai/ha, 0 to 100 scale (0 no effect, 100 complete control)
[7] = Postemergence, 125 g ai/ha, visual rating on 0 to 100 scale (0 no effect, 100 complete control), approx. 10 days
[8] = Postemergence, 500 g ai/ha, 0 to 100 scale (0 no effect, 100 complete control)
[9] = Preemergence, 125 g ai/ha, 0 to 100 scale where 0 is no effect and 100 is complete control
[10] = Preemergence, 500 g ai/ha, visual rating on 0 to 100 scale (0 no effect, 100 complete control)
[11] = Postemergence, 125 g ai/ha, 0 to 100 scale, 0 no effect, 100 complete control
[12] = preemergence, 500 g ai/ha, 0 to 100 scale
[13] = Postemergence, 1000 g ai/ha, 0 to 100 scale (0 no effect, 100 complete control)
[14] = preemergence, 1000 g ai/ha, 0 to 100 scale

| SMILES | Plant response rating, Galium (galium; [5]) | Plant response rating, Ragweed (ragweed; [7]) | Ragweed plant response rating (ragweed; [10]) | Plant response rating, Blackgrass (blackgrass; [5]) | Plant response rating, Blackgrass (blackgrass; [6]) | Plant response rating, Ryegrass, Italian (ryegrass, Italian; [7]) | Plant response rating, Ryegrass, Italian (ryegrass, Italian; [9]) | Ryegrass, Italian plant response rating (ryegrass, Italian; [10]) | Plant response rating, Velvetleaf (velvetleaf; [8]) | Velvetleaf plant response rating (velvetleaf; 125 g ai/ha) | Plant response rating, Velvetleaf (velvetleaf; [12]) | Plant response rating, Morningglory (morningglory; [8]) | Morningglory plant response rating (morningglory; 125 g ai/ha) | Plant response rating, Morningglory (morningglory; [12]) | also measured |
| --- | --- | --- | --- | --- | --- | --- | --- | --- | --- | --- | --- | --- | --- | --- | --- |
| O=C1NCC(c2ccc(Cl)cc2)C1C(=O)Nc1cccc(F)c1F (stereo not shown) [Compound 218] | – | – | – | – | – | – | – | – | – | – | – | – | – | – | Plant response rating, Galium (galium; [1]): 40; Galium plant response rating (0 to 100 scale, 0 is no effect, 100 is complete control) (galium; 500 g ai/ha): 60; Plant response rating, Ragweed (ragweed; [2]): 0; Plant response rating, Ragweed (ragweed; [3]): 0; Ragweed plant response rating (0 to 100 scale, 0 is no effect, 100 is complete control) (ragweed; Postemergence, 500 g ai/ha): 50; Plant response rating, Ragweed (ragweed; [4]): 50; Plant response rating, Blackgrass (blackgrass; [1]): 20; Blackgrass plant response rating (0 to 100 scale, 0 is no effect, 100 is complete control) (blackgrass; 500 g ai/ha): 40; Plant response rating, Ryegrass, Italian (ryegrass, Italian; [2]): 40; Plant response rating, Ryegrass, Italian (ryegrass, Italian; [3]): 0; Ryegrass, Italian plant response rating (0 to 100 scale, 0 is no effect, 100 is complete control) (ryegrass, Italian; Postemergence, 500 g ai/ha): 30; Plant response rating, Ryegrass, Italian (ryegrass, Italian; [4]): 60 |
| O=C1NCC(c2ccc(C(F)(F)F)cc2)C1C(=O)Nc1cccc(F)c1F (racemic) [Compound 202] | – | – | – | – | – | – | – | – | – | – | – | – | – | – | Plant response rating, Galium (galium; [1]): 60; Galium plant response rating (0 to 100 scale, 0 is no effect, 100 is complete control) (galium; 500 g ai/ha): 60; Plant response rating, Ragweed (ragweed; [2]): 50; Plant response rating, Ragweed (ragweed; [3]): 30; Ragweed plant response rating (0 to 100 scale, 0 is no effect, 100 is complete control) (ragweed; Postemergence, 500 g ai/ha): 50; Plant response rating, Ragweed (ragweed; [4]): 90; Plant response rating, Blackgrass (blackgrass; [1]): 50; Blackgrass plant response rating (0 to 100 scale, 0 is no effect, 100 is complete control) (blackgrass; 500 g ai/ha): 50; Plant response rating, Ryegrass, Italian (ryegrass, Italian; [2]): 60; Plant response rating, Ryegrass, Italian (ryegrass, Italian; [3]): 30; Ryegrass, Italian plant response rating (0 to 100 scale, 0 is no effect, 100 is complete control) (ryegrass, Italian; Postemergence, 500 g ai/ha): 40; Plant response rating, Ryegrass, Italian (ryegrass, Italian; [4]): 60 |
| O=C1NCC(c2cccc(Br)c2)C1C(=O)Nc1ccc(F)c(F)c1F (stereo not shown) [Compound 310] | 20 | 20 | 0 | 30 | 50 | 30 | 30 | 40 | – | – | – | – | – | – | Plant response rating, Galium (galium; [6]): 20; Plant response rating, Ragweed (ragweed; [8]): 30; Plant response rating, Ragweed (ragweed; [9]): 0; Plant response rating, Ryegrass, Italian (ryegrass, Italian; [8]): 30 |
| CN1CC(c2ccc(C(F)(F)F)cc2)C(C(=O)Nc2cccc(F)c2F)C1=O (stereo not shown) [Compound 306] | 60 | 20 | 80 | 50 | 60 | 50 | 40 | 80 | – | – | – | – | – | – | Plant response rating, Galium (galium; [6]): 70; Plant response rating, Ragweed (ragweed; [8]): 40; Plant response rating, Ryegrass, Italian (ryegrass, Italian; [8]): 60 |
| O=C1NCC(c2cc(F)c(F)cc2F)C1C(=O)Nc1cccc(F)c1F (stereo not shown) [Compound 50] | – | – | – | – | – | – | – | – | 0 | 0 | 0 | 0 | 0 | 0 | Plant response rating, Velvetleaf (velvetleaf; [11]): 0; Plant response rating, Morningglory (morningglory; [11]): 0 |
| O=C1NCC(c2ccc(C(F)(F)F)cc2)C1C(=O)Nc1ccccc1F (stereo not shown) [Compound 231] | – | – | – | – | – | – | – | – | – | – | – | – | – | – | Plant response rating, Galium (galium; [1]): 40; Galium plant response rating (0 to 100 scale, 0 is no effect, 100 is complete control) (galium; 500 g ai/ha): 50; Plant response rating, Ragweed (ragweed; [2]): 70; Plant response rating, Ragweed (ragweed; [3]): 20; Ragweed plant response rating (0 to 100 scale, 0 is no effect, 100 is complete control) (ragweed; Postemergence, 500 g ai/ha): 50; Plant response rating, Ragweed (ragweed; [4]): 90; Plant response rating, Blackgrass (blackgrass; [1]): 40; Blackgrass plant response rating (0 to 100 scale, 0 is no effect, 100 is complete control) (blackgrass; 500 g ai/ha): 60; Plant response rating, Ryegrass, Italian (ryegrass, Italian; [2]): 40; Plant response rating, Ryegrass, Italian (ryegrass, Italian; [3]): 20; Ryegrass, Italian plant response rating (0 to 100 scale, 0 is no effect, 100 is complete control) (ryegrass, Italian; Postemergence, 500 g ai/ha): 40; Plant response rating, Ryegrass, Italian (ryegrass, Italian; [4]): 60 |
| Cc1c(F)cccc1NC(=O)C1C(=O)NCC1c1ccc(F)c(F)c1 (racemic) [Compound 106] | – | – | – | – | – | – | – | – | – | – | – | – | – | – | Plant response rating, Velvetleaf (velvetleaf; [13]): 40; Plant response rating, Velvetleaf (velvetleaf; [14]): 0; Plant response rating, Morningglory (morningglory; [13]): 20; Plant response rating, Morningglory (morningglory; [14]): 0 |
| CC(C)c1cccc(C2CNC(=O)C2C(=O)Nc2cccc(F)c2F)c1 (stereo not shown) [Compound 319] | 30 | 20 | 40 | 40 | 50 | 30 | 30 | 60 | – | – | – | – | – | – | Plant response rating, Galium (galium; [6]): 50; Plant response rating, Ragweed (ragweed; [8]): 40; Plant response rating, Ragweed (ragweed; [9]): 30; Plant response rating, Ryegrass, Italian (ryegrass, Italian; [8]): 50 |
| O=C1NCC(c2ccc(F)c(Cl)c2)C1C(=O)Nc1ccccc1F (stereo not shown) [Compound 60] | – | – | – | – | – | – | – | – | 0 | 0 | 0 | 0 | 0 | 0 | Plant response rating, Velvetleaf (velvetleaf; [11]): 0; Plant response rating, Morningglory (morningglory; [11]): 0 |
| CN1CC(c2cccc(C(F)(F)F)c2)C(C(=O)Nc2cccc(F)c2F)C1=O (stereo not shown) [Compound 305] | 50 | 0 | 50 | 60 | 70 | 60 | 70 | 90 | – | – | – | – | – | – | Plant response rating, Galium (galium; [6]): 70; Plant response rating, Ragweed (ragweed; [8]): 0; Plant response rating, Ragweed (ragweed; [9]): 30; Plant response rating, Ryegrass, Italian (ryegrass, Italian; [8]): 70 |
| O=C1NCC(c2ccc(OC(F)F)cc2)C1C(=O)Nc1cccc(F)c1F (racemic) [Compound 350] | 60 | 0 | 30 | 50 | 50 | 0 | 0 | 0 | – | – | – | – | – | – | Plant response rating, Ragweed (ragweed; [9]): 30 |
| O=C1NCC(c2ccc(F)c(F)c2)C1C(=O)Nc1ccccc1C(F)(F)F (racemic) [Compound 6] | – | – | – | – | – | – | – | – | 10 | 0 | 0 | 0 | 0 | 0 | – |
| O=C1NCC(c2ccc(C(F)(F)F)cc2)C1C(=O)Nc1ccccc1F (stereo not shown) [Compound 79, N-(2-fluorophenyl)-2-oxo-4-[4-(trifluoromethyl)phenyl]-3-pyrrolidinecarboxamide] | – | – | – | – | – | – | – | – | – | 0 | – | – | 0 | – | pest or weed control at 125 g/ha (velvetleaf; Abutilon theophrasti, post-emergence, 240 h, Postemergence, 125 g ai/ha, 0 to 100 scale, 0 no effect, 100 complete control, read-out: Plant response rating, Velvetleaf): 10%; pest or weed control at 500 g/ha (velvetleaf; Abutilon theophrasti, post-emergence, 240 h, Postemergence, 500 g ai/ha, 0 to 100 scale (0 no effect, 100 complete control), read-out: Plant response rating, Velvetleaf): 60%; pest or weed control at 500 g/ha (velvetleaf; Abutilon theophrasti, pre-emergence, 240 h, preemergence, 500 g ai/ha, 0 to 100 scale, read-out: Plant response rating, Velvetleaf): 30%; pest or weed control at 125 g/ha (morningglory; Ipomoea, post-emergence, 240 h, Postemergence, 125 g ai/ha, 0 to 100 scale, 0 no effect, 100 complete control, read-out: Plant response rating, Morningglory): 0%; pest or weed control at 500 g/ha (morningglory; Ipomoea, post-emergence, 240 h, Postemergence, 500 g ai/ha, 0 to 100 scale (0 no effect, 100 complete control), read-out: Plant response rating, Morningglory): 10%; pest or weed control at 500 g/ha (morningglory; Ipomoea, pre-emergence, 240 h, preemergence, 500 g ai/ha, 0 to 100 scale, read-out: Plant response rating, Morningglory): 0% |
| O=C1NCC(c2cc(F)c(F)c(F)c2)C1C(=O)Nc1cccc(F)c1F (stereo not shown) [Compound 48] | – | – | – | – | – | – | – | – | 20 | 0 | 0 | 20 | 0 | 0 | Plant response rating, Velvetleaf (velvetleaf; [11]): 0; Plant response rating, Morningglory (morningglory; [11]): 0 |
| O=C1NCC(c2cccc(OC(F)(F)F)c2)C1C(=O)Nc1ccccc1F (stereo not shown) [Compound 69] | – | – | – | – | – | – | – | – | 30 | 0 | 0 | 0 | 0 | 0 | Plant response rating, Velvetleaf (velvetleaf; [11]): 20; Plant response rating, Morningglory (morningglory; [11]): 0 |
